Experiments:
[1] = tested on: synchronized Pf3D7 strain cultures (rings, trophozoites); assay: Stage-specificity and parasitemia titres on synchronized Pf3D7 cultures (Giemsa smears); assay type: cell-based, Plasmodium falciparum; conditions: for effect on ring stage parasitemia: 6 hours post exposure of ring stages; for effect on ring stage parasitemia / effect on mature blood stage parasite titres (parasitemia): Fig. 5; for effect on mature blood stage parasite titres (parasitemia): 16 hours after incubation with trophozoite stage; for effect on progression from trophozoites to schizonts / schizont morphology: concentration = individual IC50, up to 16 hours exposure; for effect on ring-stage growth and morphology: newly synchronized rings, concentration = individual IC50, monitored at 6 and 12 hours
Method: Next, we sought to determine stage-specificity of the antiplasmodial activity of the four active analogues (6a, 6h, 6m and 6u) on synchronized Pf3D7 strain cultures at 2% hematocrit and 1% parasitemia, with concentrations corresponding to individual drug IC50. To determine the effect of the compounds on both early and late ring stage parasites, the treatment was conducted on newly synchronized rings for 12 hours, and drug effect on parasite growth and morphology was monitored at 6 and 12 hours after exposure. Similarly, early trophozoites were exposed to each compound and incubated for 16 hours, and monitored at 6 and 16 hours post-exposure. The effect of the compounds on parasite morphology and development was compared in exposed and unexposed drug wells (Figs 3 and 4).
Figure 5 Effect of Pht analogues on parasite growth titres (Note: Graphical description of the inhibitory effect of select analogues on parasite growth titres 6 hours after incubation with ring-stages and 16 hours after drug incubation with trophozoite stage. Parasitemia percentage was derived by counting the number of infected erythrocytes from a total of 2,000 erythrocytes on Giemsa stained thin smears from each experiment. Bar diagrams represent the average of three different experiments).

P. falciparum W2 = assay: Fixed-ratio isobologram drug interaction assay with CQ/DHA, W2; assay type: cell-based, Plasmodium falciparum; conditions: PfW2
Method: A modified fixed-ratio isobologram method was used to assess interaction between CQ/DHA and Pht analogues. Briefly, a total of 5 solutions containing fixed-ratio mixtures of Pht derivatives with either CQ or DHA were prepared in the following ratios: 1:1, 2:1, 3:2, 2:3, and 1:4. The starting concentrations for ten 2 fold-serial dilutions across the microtiter plate were assigned so that the IC50 of each drug would be in the 5th serial dilution of the plate. Each drug was tested alone and at fixed ratios of its IC50. The assessment of drug interaction was based on the calculation of the fractional inhibitory concentration (FIC) of two drugs in the […]. FIC was calculated for each association by dividing the IC50 of the drug in the combination by the IC50 of the drug alone.

P. berghei NK65 = assay: Modified Peter's 4-day suppressive test in P. berghei NK65 infected Swiss albino mice; assay type: in vivo, Plasmodium berghei; conditions: for effect on parasite load / effect on survival: 50 mg/kg s.c. for four consecutive days (artemisinin 5 mg/kg in combination), vs untreated; for median survival time (MST): 6h/6u 50 mg/kg, artemisinin 5 mg/kg, s.c. for four consecutive days, n = 6/group
Method: The antimalarial effect of two active analogues, 6h and 6u (administered at 50 mg/kg of body weight), was determined in mice infected with P. berghei NK65, a strain, which results in high levels of blood-stage parasitemia. […] However, the 6u analogue had better antimalarial efficacy than the 6h analogue (Fig. 6A). As such, we then evaluated the efficacy of 6u (50 mg/kg) in combination with artemisinin (5 mg/kg of body weight) at reduced dosage in the murine malaria model. […] The median survival times of animals treated with Pht 6u alone, as well in combination with ART were 23 and 27.5 days, respectively (P<0.001).
Figure 6 Antimalarial effect of Pht analogs (6h and 6u) alone and in combination with Artemisinin (6u and ART) on parasitemia and survival in mice infected with P. berghei NK65. Mice were injected with 1 × 10^7 P. berghei infected RBCs. After 48 hours mice were treated with control (PBS: untreated), 6h and 6u (alone), and 6u in combination with artemisinin (all injected subcutaneously) for four consecutive days. The % of parasitemia was determined for the groups on days 5, 8 and 15 by randomly selecting 10 different optical fields on blood smears. (A) Administration of 6h and 6u (alone), and 6 u in combination with ART. Data are the mean ± SEM from six animals per treatment group. (B) Survival in the treatment groups (n = 6/group). (C) Photomicrograph of blood smears of untreated versus treatment groups at day 15 post infection (100x magnification). ART, Artemisinin; *P < 0.05. TEXT PRINTED IN THE PICTURE: (B) Phthalimide 6h: MST- 19.5 | (B) Phthalimide 6u: MST- 23 | (B) Artemisinin: MST- 21.5 | (B) Phthalimide 6u+Artemisinin: MST- 27.5
All animal experiments were performed in female Swiss albino mice (4 to 5 weeks old, weighing 25 to 30 g). The animals were housed under standard controlled conditions at 25 °C with a 12-h light-dark cycle and access to sterilized food pellets and water. All experiments were carried out in accordance with the standard procedures approved by the Animal Ethics Committee of the University of Delhi South Campus, under the Control and Supervision of Experiments on Animals (CPCSEA), Ministry of Social Justice and Empowerment, Government of India. […] The antimalarial activity was carried out in accordance with a slightly modified version of the Peter’s 4-day suppressive test[43]. The animals were assigned to each group (n = 6). Subsequently, after 48 hour of postinfection, the parasitemia level reached 1 to 2%, and all the groups of mice were treated by subcutaneous (s.c.) injection with compounds 6h and 6u alone as well in combination with artemisinin solubilized in DMSO. One group was kept as a control and treated with physiological saline. The efficacy of the treatment was monitored by measuring the parasitemia and survival on days 5, 8 and 15 posttreatments by obtaining thin smears of blood withdrawn from the tail vein of infected mice and staining with 10% Giemsa. The level of parasitemia was determined by counting infected and noninfected erythrocytes from 10 to 15 randomly selected optical fields at 100x magnification and expressed as the number of infected erythrocytes per 100 erythrocytes. The survival of mice was recorded and observed for external symptoms, such as change in body weight, ruffled fur, lethargy and paralysis, until 30 or 40 days posttreatment. The reduction in the level of parasitemia was taken as the index for the curative activities of the drugs. The percentage of parasitemia was calculated manually with the Cell Counting Aid software[44] using the formula (total no. of parasitized RBCs)/(total no. of RBCs) × 100.
For in-vivo experiments, statistical differences between two groups were determined by Student’s t test and between multiple groups using one-way analysis of variance (ANOVA), with P values of <0.05, by GraphPad Prism (version 5.01; GraphPad Software, Inc., CA). […]

Compound	effect on ring stage parasitemia [1]	effect on mature blood stage parasite titres (parasitemia) [1]	effect on trophozoites ([1]; early trophozoites, concentration = individual IC50, 6 hours after exposure)	effect on progression from trophozoites to schizonts / schizont morphology ([1]; early trophozoites)	effect on ring-stage growth and morphology [1]	interaction when combined with CQ and DHA (P. falciparum W2)	effect on parasite load (P. berghei NK65)	effect on survival (P. berghei NK65)	median survival time (MST) (P. berghei NK65) [days]
CC[C@@H](C)[C@H](c1nc2ccccc2n1Cc1cn(-c2ccc(F)cc2)nn1)N1C(=O)c2ccccc2C1=O [Compound 6h]	did not affect parasite growth	reduction in parasitemia	complete destruction of trophozoites	presence of schizonts with abnormal morphology	did not arrest ring-stage maturation	synergistic activity	suppression of the parasite load	improved survival	19.5
CC(C)C[C@H](c1nc2ccccc2n1Cc1c[nH]nn1)N1C(=O)c2ccccc2C1=O [Compound 6u]	reduction in ring stage parasitemia	negligible	–	did not interfere with development of parasite progression from trophozoites to schizonts	active against ring-stage forms	synergistic activity	suppression of the parasite load	improved survival	23
